Some test systems named below: 786-0 renal; ACHN renal; EKVX NSCLC; HCT-15 colon; HL-60(TB) leukemia; M14 melanoma; SF-295 CNS; SNB-19 CNS; SR leukemia; UACC-257 melanoma.
Holding throughout (experiment): growth of human tumour cells (NCI), 48 h

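48-hour exposure; five concentrations; linearly interpolated endpoints. At the GI50, growth is halved. The concentration for full growth arrest is given as TGI.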 Where only a bound is given, the exact number is not on record here.

As for `COc1ccc(-c2[nH]c3ccccc3c2CCNS(=O)(=O)c2ccc(C)cc2)cc1`, the TGI in the assay with 786-0 renal, in the assay on ACHN renal, with EKVX NSCLC, in the assay with HCT-15 colon, in the assay on HL-60(TB) leukemia and in the assay on M14 melanoma was above 10 µM in each case. The TGI in the assay on SF-295 CNS, with SNB-19 CNS, with SR leukemia and in the assay on UACC-257 melanoma was above 10 µM each time.

`CN=C1OC2(c3ccccc3)C3=C(OC(=NC)N2C)C(=O)OC3(c2ccccc2)N1C` (stereo not given): the TGI in the assay with 786-0 renal, in the assay with ACHN renal, with EKVX NSCLC, with HCT-15 colon, in the assay on HL-60(TB) leukemia and with M14 melanoma was above 100 µM in each case. In addition, the TGI with SF-295 CNS, in the assay with SNB-19 CNS, with SR leukemia and with UACC-257 melanoma was above 100 µM each time.

On to `CCN1C(=O)N(CC)C2C1NN=c1s/c(=C\c3ccc(F)cc3)c(=O)n12` (stereo not given), for which the GI50 in the assay with 786-0 renal is 702 nM; in the assay with ACHN renal it was 336 nM; in the assay with EKVX NSCLC, 396 nM; in the assay with HCT-15 colon, 87.6 nM; in the assay with HL-60(TB) leukemia, 170 nM; in the assay with M14 melanoma it was 136 nM. Besides, the GI50 is 81.9 nM with SF-295 CNS, 0.374 µM with SNB-19 CNS, 47.4 nM with SR leukemia and 42.9 µM in the assay on UACC-257 melanoma. Further, the TGI in the assay with 786-0 renal is above 100 µM; in the assay on ACHN renal, above 100 µM; in the assay on EKVX NSCLC it was above 100 µM; with HCT-15 colon it was above 100 µM; with HL-60(TB) leukemia it was 0.514 µM; in the assay on M14 melanoma, above 100 µM. Further, the TGI in the assay on SF-295 CNS was above 100 µM; in the assay on SNB-19 CNS, above 100 µM; in the assay on SR leukemia, above 37.3 µM; in the assay with UACC-257 melanoma, above 100 µM.

Consider `CNNC(=NS(=O)(=O)c1cc(C#N)c(NNC)cc1S)NNC`, for which the TGI in the assay with 786-0 renal, in the assay on ACHN renal, in the assay with EKVX NSCLC, with HCT-15 colon, in the assay with HL-60(TB) leukemia and with M14 melanoma was above 10 µM throughout. Besides, the TGI with SF-295 CNS, in the assay on SNB-19 CNS, in the assay with SR leukemia and in the assay with UACC-257 melanoma was above 10 µM in each case.

Regarding `Cc1ccc(NC(=O)C(=O)C(C(=O)/C=C/c2ccccc2)C2OC(=O)c3ccccc32)c(C)c1` (stereo not given), the TGI with 786-0 renal, in the assay with ACHN renal, in the assay with EKVX NSCLC, in the assay on HCT-15 colon, in the assay with HL-60(TB) leukemia and in the assay with M14 melanoma was above 100 µM each time. For the same molecule, the TGI with SF-295 CNS, in the assay with SNB-19 CNS, in the assay on SR leukemia and with UACC-257 melanoma was above 100 µM throughout.

Consider `Cc1ccncc1C(N)=O`, for which the GI50 in the assay on 786-0 renal, with ACHN renal, in the assay with EKVX NSCLC, in the assay on HCT-15 colon, in the assay on HL-60(TB) leukemia and in the assay with M14 melanoma was above 100000 nM throughout. Also, the GI50 was above 100000 nM in the assay on SF-295 CNS, above 100 µM with SNB-19 CNS, above 100000 nM in the assay with SR leukemia and above 100 µM with UACC-257 melanoma. The TGI with 786-0 renal, with ACHN renal, in the assay with EKVX NSCLC, with HCT-15 colon, in the assay with HL-60(TB) leukemia and with M14 melanoma was above 100 µM throughout. For the same molecule, the TGI in the assay on SF-295 CNS, with SNB-19 CNS, with SR leukemia and in the assay on UACC-257 melanoma was above 100 µM each time.

`COc1cc(-c2nn(-c3cccc(NC(=O)CCN4CCN(Cc5ccccc5)CC4)c3)cc2-c2ccncc2)ccc1Cl`: the GI50 was 1330 nM in the assay with 786-0 renal; 1200 nM in the assay with ACHN renal; 1600 nM in the assay on EKVX NSCLC; 635 nM in the assay on HCT-15 colon; 632 nM with HL-60(TB) leukemia; 696 nM with M14 melanoma. Moreover, the GI50 in the assay on SF-295 CNS was 482 nM; in the assay on SNB-19 CNS, 4.42 µM; in the assay on SR leukemia, 393 nM; with UACC-257 melanoma, 1.7 µM. In addition, the TGI in the assay on 786-0 renal was determined as 3.02 µM; with ACHN renal, 12.8 µM; in the assay on EKVX NSCLC, 17.5 µM; in the assay with HCT-15 colon, 3.72 µM; in the assay on HL-60(TB) leukemia it was 4.21 µM; in the assay on M14 melanoma, 2.21 µM. Further, the TGI stood at 1.95 µM with SF-295 CNS, 41.2 µM in the assay on SNB-19 CNS, 2.48 µM in the assay with SR leukemia and 3.55 µM in the assay with UACC-257 melanoma.

Turning to `CC(CO)(Nc1ccc([N+](=O)[O-])cc1[N+](=O)[O-])C(=O)O` (stereo not given), the TGI in the assay with 786-0 renal is above 100 µM; in the assay on ACHN renal it was 32.7 µM; in the assay with EKVX NSCLC it was 71.3 µM; with HCT-15 colon it was 31.4 µM; with HL-60(TB) leukemia, 35.4 µM; in the assay with M14 melanoma, above 100 µM. In addition, the TGI in the assay with SF-295 CNS is above 100 µM; with SNB-19 CNS, above 100 µM; in the assay with SR leukemia, 24.8 µM; with UACC-257 melanoma, 69.2 µM.

On to `FC(F)(F)c1cccc(-c2nn3ncccc3c2-c2ccnc(Nc3ccc4c(c3)OCCO4)n2)c1`, for which the GI50 was 8350 nM with 786-0 renal; 6420 nM in the assay with ACHN renal; 13900 nM in the assay on EKVX NSCLC; 6590 nM with HCT-15 colon; 11900 nM with HL-60(TB) leukemia; 17600 nM in the assay on M14 melanoma. Besides, the GI50 in the assay with SF-295 CNS is 18200 nM; in the assay on SNB-19 CNS it was above 25 µM; with SR leukemia it was 10400 nM; in the assay with UACC-257 melanoma, 9.5 µM. Also, the TGI in the assay on 786-0 renal, in the assay on ACHN renal, in the assay on EKVX NSCLC, in the assay with HCT-15 colon, with HL-60(TB) leukemia and in the assay with M14 melanoma was above 25 µM throughout. In addition, the TGI with SF-295 CNS, in the assay on SNB-19 CNS, with SR leukemia and in the assay on UACC-257 melanoma was above 25 µM each time.

For `NNc1nnc(-c2nnc(NN)o2)o1`, the TGI with 786-0 renal, in the assay with ACHN renal, in the assay with EKVX NSCLC, with HCT-15 colon, in the assay with HL-60(TB) leukemia and with M14 melanoma was above 10 µM in each case. Also, the TGI with SF-295 CNS, in the assay with SNB-19 CNS, in the assay on SR leukemia and in the assay on UACC-257 melanoma was above 10 µM in each case.

For the origin of these results see PubChem BioAssay (NCI).
